≈ marks a conversion by molar mass, not a printed value. Peptide text beside a SMILES is read from it. * marks the point of attachment. Cbz = O=C(OCc1ccccc1)*
Key:
[1] = test system: NO production in LPS-activated RAW264.7 macrophages; assay: Nitric oxide production in LPS-activated RAW264.7 macrophages; format: cell-based, murine; conditions: Mus musculus, positive control, 1 μg/mL LPS, 18 h
Procedure: Murine monocytic RAW264.7 macrophages were dispensed into 96-well plates (2 × 10^5 cells/well) containing RPMI-1640 medium (HyClone) with 10% FBS under a humidified atmosphere with 5% CO2 at 37 °C. After 24 h of preincubation, cells were treated with serial dilutions of the test compounds, up to a maximum concentration of 40 μM, in the presence of 1 μg/mL LPS for 18 h. The compounds were dissolved in DMSO and further diluted in the medium to produce different concentrations. NO production in each well was assessed by adding 100 μL of Griess reagent (reagent A and reagent B, Sigma, St. Louis, MO, USA) to 100 μL of each supernatant from the LPS-treated (Sigma) or LPS- and compound-treated cells in triplicate. After a 5 min incubation, the absorbance of samples was measured at 570 nm with a 2104 Envision multilabel plate reader (Perkin-Elmer Life Sciences, Inc., Boston, MA, USA).

[2] = test system: human 11β-hydroxysteroid dehydrogenases (11β-HSD1); parameters: method as in PMID 19879607; conditions: cited from earlier work
human 11β-HSD2 = test system: human 11β-HSD2; parameters: method as in PMID 19879607; conditions: cited from earlier work
[3] = test system: human embryonic kidney 293 cell; parameters: method as in PMID 26669092; conditions: read-out: IC50 against human embryonic kidney 293 cell; cited from earlier work
[4] = Cytotoxicity assay (CCK-8) on spleen cells; format: cell-based; conditions: female, fresh spleen cells (splenic lymphocytes), BALB/c mouse spleen cells
Procedure: (§1) Female BALB/c mice were sacrificed by cervical dislocation, and the spleens were removed aseptically. Mononuclear cell suspensions were prepared after cell debris and clumps were removed. Erythrocytes were depleted with ammonium chloride buffer solution. Lymphocytes were washed and resuspended in RPMI-1640 medium supplemented with 10% FBS, penicillin (100 U/mL), and streptomycin ([…]).
Cytotoxicity was tested with Cell Counting Kit-8 (CCK-8) assay. Briefly, fresh spleen cells were gained from female BALB/c mice (18–20 g). Spleen cells (1 ×10^6 cells) were seeded in triplicate in 96-well flat plates, then cultured at 37 °C for 48 h in 96-well flat plates in the presence or absence of various concentrations of compounds, as well as in a humidified and 5% CO2-containing incubator. A certain amount of CCK-8 was added to each well at the final 8–10 h of culture. At the end of culturing, we measured the OD values with a microplate reader (Bio-Rad 650, Hercules, CA, USA) at 450 nm. […] The cytotoxicity of each compound was expressed as the concentration of compound that reduced cell viability to 50% (CC50).

Staphylococcus aureus = test system: Staphylococcus aureus; parameters: method as in ref 17 =  L.V. Levchenko S.V. O’Neill D.P. Advances in methods and algorithms in a modern quantum chemistry program; conditions: cited from earlier work
Bacillus cereus = test system: Bacillus cereus; parameters: method as in ref 17 = [17];  L.V. Levchenko S.V. O’Neill D.P. Advances in methods and algorithms in a modern quantum chemistry program; conditions: cited from earlier work
[5] = test system: ConA-induced T-cell proliferation (spleen cells); assay: ConA-induced T-cell proliferation ([3H]-thymidine uptake); format: cell-based; conditions: Mus musculus, spleen cells stimulated with 5 µg/mL ConA
Procedure: as §1
(§2) Fresh spleen cells were obtained from female BALB/c mice (18–20 g). The 5 × 10^5 spleen cells were cultured at the same conditions as those mentioned above. The cultures, in the presence or absence of various concentrations of compounds, were stimulated with 5 µg/mL of concanavalin A (ConA) or 10 µg/mL of lipopolysaccharide (LPS) to induce T-cells’ or B-cells’ proliferative responses, respectively. Proliferation was assessed in terms of uptake of [^3H]-thymidine during 8 h of pulsing with 25 µL/well of [^3H]-thymidine, and then cells were harvested onto glass fiber filters. The incorporated radioactivity was counted using a Beta scintillation counter (MicroBeta Trilux; PerkinElmer Life Sciences, Waltham, MA, USA). Cells treated without any stimuli were used as a negative control. The immunosuppressive activity of each compound was expressed as the concentration of compound that inhibited ConA-induced T-cell proliferation or LPS-induced B-cell proliferation to 50% (IC50) of the control value. […]

Escherichia coli = test system: Escherichia coli; parameters: L.V. Levchenko S.V. O’Neill D.P. Advances in methods and algorithms in a modern quantum chemistry program; conditions: cited from earlier work
[6] = test system: LPS-induced B-cell proliferation (spleen cells); assay: LPS-induced B-cell proliferation ([3H]-thymidine uptake); format: cell-based; conditions: Mus musculus, spleen cells stimulated with 10 µg/mL LPS
Procedure: as §1, §2

Micrococcus luteus = test system: Micrococcus luteus; parameters: L.V. Levchenko S.V. O’Neill D.P. Advances in methods and algorithms in a modern quantum chemistry program; conditions: cited from earlier work

## CC(C)C[C@@H](C=O)NC(=O)[C@H](CC(C)C)NC(=O)[C@H](CC(C)C)NC(=O)OCc1ccccc1 [MG-132] (Cbz-Leu-Leu-Leu-aldehyde)
[1]
  IC50: 0.2 µM

## CC1=CCC2C(C)(C)C(O)CCC2(C)C1CC12OC1C(O)C(CO)=CC2O (stereo not shown) [craterellin B]
[2]
  IC50 against human 11β-HSD1: 3.5 µg/mL (≈ 9.25 µM)

## C=C1[C@@H](O)[C@H]2O[C@@]2(C[C@H]2C(C)=CC[C@H]3C(C)(C)CCC[C@]23C)[C@H](O)[C@H]1O [craterellin C]
Human 11β-HSD2
  IC50 against human 11β-HSD2: 25.4 µg/mL (≈ 70.1 µM)
[3]
  IC50: 50.9 µM
[2]
  IC50 against human 11β-HSD1: 14.8 µg/mL (≈ 40.8 µM)

## CC1=CC[C@H]2C(C)(C)CCC[C@]2(C)[C@H]1C[C@@]12O[C@@H]1[C@H](O)C(CO)=C[C@H]2O [Compound 3, craterellin A]
[4]
  CC50 at 48 h: > 40 µM
Staphylococcus aureus
  MIC against Staphylococcus aureus: 6.25 µM (≈ 2.27 µg/mL)
Bacillus cereus
  MIC against Bacillus cereus: 3.12 µM (≈ 1.13 µg/mL)
Human 11β-HSD2
  IC50 against human 11β-HSD2: 1.5 µg/mL (≈ 4.14 µM)
[5]
  IC50: 9.07 ± 0.644 µM
Escherichia coli
  MIC against Escherichia coli: 6.25 µM (≈ 2.27 µg/mL)
[6]
  IC50: 20 ± 1.38 µM
Micrococcus luteus
  MIC against Micrococcus luteus: 6.25 µM (≈ 2.27 µg/mL)
[2]
  IC50 against human 11β-HSD1: 9.1 µg/mL (≈ 25.1 µM)

## CC1=CCC2C(C)(C)CCCC2(C)C1CC12OC1C(=O)C(Cc1c(O)cc(CC(C)O)oc1=O)=CC2O (stereo not shown) [Compound 1, craterodoratin T]
[4]
  CC50 at 48 h: > 40 µM
[6]
  IC50: 5.52 ± 0.452 µM

Source: article PMC9963684, “Meroterpenoids with Immunosuppressive Activity from Edible Fungus Craterellus odoratus” (Molecules, 2023)
